According to patent US20210238197A1, “NOVEL OXOQUINOLIZINE COMPOUNDS FOR THE TREATMENT AND PROPHYLAXIS OF BACTERIAL INFECTION” (Hoffmann-La Roche Inc., priority 2018, published 2021):
≈ marks a conversion by molar mass, not a printed value. Like-named read-outs stand apart in the source and are kept apart here.

How the values were obtained:
S. aureus (ATCC29213) = test: 50% growth inhibitory concentration (IC50) determination assay, S. aureus; format: cell-based; details: Staphylococcus aureus, ATCC29213; Iso-Sensitest broth, growth by OD 600 nm over 16 h; <0.098 = detection limit
In short: (§1)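 Compounds two-fold diluted from 50 to 0.097 μM (final) in Iso-Sensitest broth, inoculum ~5×10^5 CFU/mL. Incubation at 35±2 °C with OD600 read every 20 min over 16 h to track growth.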

[1] = Lyophilisation solubility assay (LYSA); format: physicochemical; details: aqueous buffer, thermodynamic from solid; 0.05 M phosphate buffer, pH 6.5; <1.0 = detection limit
Method: The solubility of compounds of present invention was assessed by LYSA assay. Samples were prepared in duplicate from 10 mM DMSO stock solutions (20 μL) diluted in 30 μL pure DMSO. After evaporation of DMSO with a centrifugal vacuum evaporator, the residue was dissolved in 0.05 M phosphate buffer (150 μL, pH 6.5), which was stirred for one hour and shook for two hours. After one night, the solution was filtered using a microtiter filter plate. Then the filtrate and its 1/10 dilution were analyzed by HPLC-UV. In addition a four-point calibration curve was prepared from the 10 mM stock solutions and used for the solubility determination of the compounds.

[2] = system: K. pneumoniae (ATCC10031); test: 50% growth inhibitory concentration (IC50) determination assay, K. pneumoniae; format: cell-based; details: Klebsiella pneumoniae, ATCC10031; Iso-Sensitest broth, growth by OD 600 nm over 16 h; <0.098 = detection limit
In short: as §1

A. baumannii (ATCC17978) = test: 50% growth inhibitory concentration (IC50) determination assay, A. baumannii; format: cell-based; details: Acinetobacter baumannii, ATCC17978; Iso-Sensitest broth, growth by OD 600 nm over 16 h; <0.098 = detection limit
In short: as §1

[3] = Cytotoxicity assay (HepG2, CellTiter-Blue); format: cell-based; details: human; HepG2 cells, 3 days treatment; >100 = detection limit
Method: The cytotoxicity of compounds of present invention was assessed by HepG2 assay. HepG2 cells (ATCC RB-8065™) were seeded into 96-well plates (1.2×10^4 cells per well) and treated with compounds for 3 days, cell viability was measured at day 3 post compound treatment using the CellTiter-Blue® Cell Viability Assay (Promega, Cat. No. G8082). […], of Cell titer blue buffer were added to each well of the cells, which were incubated for 3 hours at 37° C., and the fluorescence value was measured by a plate reader (Molecular Device SpectraMax M2). The CC50 value of each compound is plotted with GraphPad Prism using four parameter logistic equation.

[4] = system: multiple species and strains; test: microbe, parasite or virus in culture; parameters: MIC S9 / MIC S7 / MIC S11 / MIC S8 / MIC S10: unit not given beside the values; details: for MIC S9: E. coli ATCC 35218
In short: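 Broth microdilution per CLSI M07-A10 in CAMHB, CAMHB+3% lysed horse blood or HTM. Inoculum was set to OD600 ~0.1, then diluted 1:280 (Gram-positive) or 1:400 (Gram-negative), and plates were incubated 18-24 h at 35±2° C in ambient air. MIC (μg/mL) is the lowest concentration giving no visible growth.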

[5] = Acinetobacter baumannii, ATCC19606, read-out: MIC S1, A. baumannii ATCC 19606
[6] = Acinetobacter baumannii, ATCC51432, read-out: MIC S2, A. baumannii ATCC 51432
[7] = Acinetobacter baumannii, ATCCBAA747, read-out: MIC S3, A. baumannii ATCC BAA-747
[8] = Escherichia coli, ATCC25922, read-out: MIC S11, E. coli ATCC 25922
[9] = Escherichia coli, ATCCBAA2340, read-out: MIC S10, E. coli ATCC BAA-2340
[10] = Klebsiella pneumoniae, ATCC10031, read-out: MIC S4, K. pneumoniae ATCC 10031
[11] = Klebsiella pneumoniae, ATCC700603, read-out: MIC S5, K. pneumoniae ATCC 700603
[12] = Klebsiella pneumoniae, ATCCBAA2146, read-out: MIC S6, K. pneumoniae ATCC BAA-2146
[13] = Pseudomonas aeruginosa, ATCC27853, read-out: MIC S7, P. aeruginosa ATCC 27853
[14] = Pseudomonas aeruginosa, ATCCBAA2113, read-out: MIC S8, P. aeruginosa ATCC BAA-2113

SMILES	IC50 (S. aureus (ATCC29213)) [nM]	solubility thermodynamic [1] [µg/mL]	IC50 [2] [nM]	IC50 (A. baumannii (ATCC17978)) [nM]	CC50 at 3 days [3] [nM]	MIC [4, 5] [µg/mL]	MIC [4, 6] [µg/mL]	MIC [4, 7] [µg/mL]	MIC S9 [4]	MIC [4, 8] [µg/mL]	MIC [4, 9] [µg/mL]	MIC [4, 10] [µg/mL]	MIC [4, 11] [µg/mL]	MIC [4, 12] [µg/mL]	MIC [4, 13] [µg/mL]	MIC [4, 14] [µg/mL]
CNc1cc(Cl)cc2c1[nH]c1ncc(-c3ccc4ccc(C(=O)O)c(=O)n4c3)c(N3CC[C@H]4CN(C)C[C@H]43)c12 (relative stereo) [Example 1.19, 7-[6-chloro-4-(cis-5-methyl-2,3,3a,4,6,6a-hexahydropyrrolo[2,3-c]pyrrol-1-yl)-8-(methylamino)-9H-pyrido[2,3-b]indol-3-yl]-4-oxo-quinolizine-3-carboxylic acid]	185	29 (≈ 53.4 µM)	< 98	< 98												
CNc1cc(F)c(F)c2c1[nH]c1ncc(-c3cc(C)c4ccc(C(=O)O)c(=O)n4c3)c(N3CC[C@H]4CN(C)C[C@H]43)c12 (relative stereo) [Example 2.01, 7-(5,6-Difluoro-8-(methylamino)-4-(cis-5-methyl-2,3,3a,4,6,6a-hexahydropyrrolo[2,3-c]pyrrol-1-yl)-9H-pyrido[2,3-b]indol-3-yl)-9-methyl-4-oxo-4H-quinolizine-3-carboxylic acid]	< 98	41 (≈ 73.4 µM)	< 98	< 98												
CNc1cc(F)c(F)c2c1[nH]c1ncc(-c3cc(F)c4ccc(C(=O)O)c(=O)n4c3)c(N3CC[C@H]4CN(C)C[C@H]43)c12 (relative stereo) [Example 2.02, 7-[4-[cis-5-methyl-2,3,3a,4,6,6a-hexahydropyrrolo[2,3-c]pyrrol-1-yl]-5,6-difluoro-8-(methylamino)-9H-pyrido[2,3-b]indol-3-yl]-9-fluoro-4-oxo-quinolizine-3-carboxylic acid]	108	58 (≈ 103 µM)	< 98	< 98												
CNc1cc(F)c(F)c2c1[nH]c1ncc(-c3ccc4c(C(F)(F)F)cc(C(=O)O)c(=O)n4c3)c(N3CC[C@H]4CN(C)C[C@H]43)c12 (relative stereo) [Example 2.06, 7-[4-[cis-5-methyl-2,3,3a,4,6,6a-hexahydropyrrolo[2,3-c]pyrrol-1-yl]-5,6-difluoro-8-(methylamino)-9H-pyrido[2,3-b]indol-3-yl]-4-oxo-1-(trifluoromethyl)quinolizine-3-carboxylic acid]		7 (≈ 11.4 µM)														
CNc1cc(F)cc2c1[nH]c1ncc(-c3ccc4ccc(C(=O)O)c(=O)n4c3)c(N3C[C@H]4CCN(C)[C@H]4C3)c12 (single isomer, unassigned) [Example 3.01A]	< 98	9 (≈ 17.1 µM)	< 98	< 98												
CNc1cc(F)cc2c1[nH]c1ncc(-c3ccc4ccc(C(=O)O)c(=O)n4c3)c(N3C[C@@H]4CCN(C)[C@@H]4C3)c12 (single isomer, unassigned) [Example 3.01B]	< 98	16 (≈ 30.4 µM)	< 98	< 98												
CNc1cc(F)c(F)c2c1[nH]c1ncc(-c3ccc4ccc(C(=O)O)c(=O)n4c3)c(N3CC[C@@H]4CCN(C)[C@@H]4C3)c12 [Example 3.04B, 7-[4-[(3aS,7aS)-1-methyl-3,3a,4,5,7,7a-hexahydro-2H-pyrrolo[2,3-c]pyridin-6-yl]-5,6-difluoro-8-(methylamino)-9H-pyrido[2,3-b]indol-3-yl]-4-oxo-quinolizine-3-carboxylic acid]	< 98		< 98	< 98	10800	0.436 (≈ 0.781 µM)	0.436 (≈ 0.781 µM)	0.436 (≈ 0.781 µM)	0.436	0.164 (≈ 0.294 µM)	1.75 (≈ 3.13 µM)	0.027 (≈ 0.0483 µM)	1.75 (≈ 3.13 µM)	1.75 (≈ 3.13 µM)	0.873 (≈ 1.56 µM)	1.75 (≈ 3.13 µM)
CNc1cc(F)c(F)c2c1[nH]c1ncc(-c3ccc4ccc(C(=O)O)c(=O)n4c3)c(N3CC[C@@]4(C[C@H]4N)C3)c12 [Example 4.01B, 7-(4-((1R,3R)-1-amino-5-azaspiro[2.4]heptan-5-yl)-5,6-difluoro-8-(methylamino)-9H-pyrido[2,3-b]indol-3-yl)-4-oxo-4H-quinolizine-3-carboxylic acid]	< 98		< 98	< 98	> 100000											
CNc1cc(F)c(F)c2c1[nH]c1ncc(-c3ccc4ccc(C(=O)O)c(=O)n4c3)c(N3CC[C@]4(C[C@H]4N)C3)c12 [Example 4.01C, 7-(4-((1R,3S)-1-amino-5-azaspiro[2.4]heptan-5-yl)-5,6-difluoro-8-(methylamino)-9H-pyrido[2,3-b]indol-3-yl)-4-oxo-4H-quinolizine-3-carboxylic acid]	< 98		< 98	< 98	> 100000	0.592 (≈ 1.12 µM)	0.592 (≈ 1.12 µM)	1.19 (≈ 2.24 µM)	0.592	0.222 (≈ 0.418 µM)	1.19 (≈ 2.24 µM)	0.074 (≈ 0.139 µM)	2.37 (≈ 4.47 µM)	2.37 (≈ 4.47 µM)	1.19 (≈ 2.24 µM)	2.37 (≈ 4.47 µM)
CNc1cc(F)c(F)c2c1[nH]c1ncc(-c3ccc4ccc(C(=O)O)c(=O)n4c3)c(N3CC[C@]4(C[C@@H]4N)C3)c12 [Example 4.01D, 7-(4-((1S,3S)-1-amino-5-azaspiro[2.4]heptan-5-yl)-5,6-difluoro-8-(methylamino)-9H-pyrido[2,3-b]indol-3-yl)-4-oxo-4H-quinolizine-3-carboxylic acid]	< 98		< 98	< 98	> 100000	0.592 (≈ 1.12 µM)	1.19 (≈ 2.24 µM)	1.19 (≈ 2.24 µM)	1.186	0.111 (≈ 0.209 µM)	0.592 (≈ 1.12 µM)	0.037 (≈ 0.0697 µM)	4.74 (≈ 8.94 µM)	4.74 (≈ 8.94 µM)	1.19 (≈ 2.24 µM)	2.37 (≈ 4.47 µM)
CNc1cc(F)c(Cl)c2c1[nH]c1ncc(-c3ccc4ccc(C(=O)O)c(=O)n4c3)c(N3CC[C@@]4(C[C@H]4N)C3)c12 [Example 5.01C, 7-(4-((1R,3R)-1-amino-5-azaspiro[2.4]heptan-5-yl)-5-chloro-6-fluoro-8-(methylamino)-9H-pyrido[2,3-b]indol-3-yl)-4-oxo-4H-quinolizine-3-carboxylic acid]	< 98		< 98	< 98	> 100000	0.516 (≈ 0.943 µM)	0.258 (≈ 0.472 µM)	0.516 (≈ 0.943 µM)	0.258	0.194 (≈ 0.355 µM)	0.258 (≈ 0.472 µM)	0.032 (≈ 0.0585 µM)	2.07 (≈ 3.78 µM)	2.07 (≈ 3.78 µM)	1.03 (≈ 1.88 µM)	2.07 (≈ 3.78 µM)
